Values joined by “and” are separate entries in the source; they are usually repeats but may differ in a detail not shown here. Identical values can stand only once. Inconclusive results are not listed.
System: CD2F1 mice, Lymphoma 8 ip, survival T/C
Assay: NCI In Vivo Anticancer Drug Screen. Data for tumor model Lymphoma 8 (intraperitoneal) in CD2F1 (CDF1) mice
Conditions: endpoint: median survival time, higher = longer survival
Method: The antitumor activity of compounds was measured in mice bearing transplantable tumors. Survival or tumor size were measured and the results are expressed as the measurement made in the treated group (T) divided by the measurement made in the vehicle treated control group (C). The tumor model used in this assay is Lymphoma 8 (intraperitoneal) in CD2F1 (CDF1) mice

For `CC[C@H]1CN2CCc3cc(OC)c(OC)cc3[C@@H]2C[C@@H]1C[C@H]1NCCc2cc(OC)c(OC)cc21`, the T/C (dose: 1.87 mg/kg/injection, schedule: Q04DX003 (ip), vehicle: saline) was 107 % of control, the T/C (dose: 2.5 mg/kg/injection, schedule: Q04DX003 (ip), vehicle: saline) was 103 % of control and the T/C (dose: 3.7 mg/kg/injection, schedule: Q04DX003 (ip), vehicle: water) was 107 % of control. The T/C (dose: 3.75 mg/kg/injection, schedule: Q04DX003 (ip), vehicle: saline) was 111 % of control, the T/C (dose: 5.0 mg/kg/injection, schedule: Q04DX003 (ip), vehicle: saline) was 100 % of control and the T/C (dose: 7.5 mg/kg/injection, schedule: Q04DX003 (ip), vehicle: saline) was 111 % of control. The T/C (dose: 7.5 mg/kg/injection, schedule: Q04DX003 (ip), vehicle: water) was 107 % of control, the T/C (dose: 10.0 mg/kg/injection, schedule: Q04DX003 (ip), vehicle: saline) was 100 % of control and the T/C (dose: 15.0 mg/kg/injection, schedule: Q04DX003 (ip), vehicle: saline) was 118 % of control. The T/C (dose: 15.0 mg/kg/injection, schedule: Q04DX003 (ip), vehicle: water) was 107 % of control and the T/C (dose: 20.0 mg/kg/injection, schedule: Q04DX003 (ip), vehicle: saline) was 103 % of control.

With `NC(=O)c1[nH]nc(C2OC(CO)C(O)C2O)c1O` (configuration not stated) the T/C (dose: 2.0 mg/kg/injection, schedule: Q04DX003 (ip), vehicle: saline) was 103 % of control, the T/C (dose: 4.0 mg/kg/injection, schedule: Q04DX003 (ip), vehicle: saline) was 91 % of control and the T/C (dose: 8.0 mg/kg/injection, schedule: Q04DX003 (ip), vehicle: saline) was 123 % of control. The T/C (dose: 16.0 mg/kg/injection, schedule: Q04DX003 (ip), vehicle: saline) was 75 % of control and the T/C (dose: 32.0 mg/kg/injection, schedule: Q04DX003 (ip), vehicle: saline) was 53 % of control.

With `NC(C/[N+]([O-])=N/O)C(=O)O` (configuration not stated) the T/C (dose: 12.5 mg/kg/injection, schedule: Q01DX009 (ip), vehicle: other) was 119 % of control, the T/C (dose: 12.5 mg/kg/injection, schedule: Q01DX009 (ip), vehicle: saline + alcohol) was 113 % of control and the T/C (dose: 12.5 mg/kg/injection, schedule: Q01DX009 (ip), vehicle: water) was 116 % of control. For the same compound, the T/C (dose: 13.2 mg/kg/injection, schedule: Q01DX010 (ip), vehicle: alkali diluted with saline) was 174 % of control, the T/C (dose: 19.8 mg/kg/injection, schedule: Q01DX010 (ip), vehicle: alkali diluted with saline) was 197 % of control and the T/C (dose: 25.0 mg/kg/injection, schedule: Q01DX009 (ip), vehicle: other) was 120 % of control. The T/C (dose: 25.0 mg/kg/injection, schedule: Q01DX009 (ip), vehicle: saline + alcohol) was 116 % of control, the T/C (dose: 25.0 mg/kg/injection, schedule: Q01DX009 (ip), vehicle: water) was 122 % of control and the T/C (dose: 29.6 mg/kg/injection, schedule: Q01DX010 (ip), vehicle: alkali diluted with saline) was 211 % of control. The T/C (dose: 44.4 mg/kg/injection, schedule: Q01DX010 (ip), vehicle: alkali diluted with saline) was 180 % of control, the T/C (dose: 50.0 mg/kg/injection, schedule: Q01DX009 (ip), vehicle: other) was 98 % of control and the T/C (dose: 50.0 mg/kg/injection, schedule: Q01DX009 (ip), vehicle: water) was 150 % of control. For the same compound, the T/C (dose: 66.7 mg/kg/injection, schedule: Q01DX010 (ip), vehicle: alkali diluted with saline) was 121 % of control, the T/C (dose: 100.0 mg/kg/injection, schedule: Q01DX009 (ip), vehicle: other) was 92 % of control and the T/C (dose: 100.0 mg/kg/injection, schedule: Q01DX009 (ip), vehicle: saline + alcohol) was 103 % of control. For the same compound, the T/C (dose: 100.0 mg/kg/injection, schedule: Q01DX009 (ip), vehicle: water) was 91 % of control and the T/C (dose: 100.0 mg/kg/injection, schedule: Q01DX010 (ip), vehicle: alkali diluted with saline) was 109 % of control.

`C[C@]12C=CC(=O)C=C1CC[C@@H]1[C@@H]2C(=O)C[C@@]2(C)[C@H]1CC[C@]2(O)C(=O)CO` was tested, and the T/C (dose: 12.5 mg/kg/injection, schedule: Q01DX005 (sc), vehicle: steriod suspending solution) was 105 % of control and 107 % of control and 108 % of control, the T/C (dose: 25.0 mg/kg/injection, schedule: Q01DX005 (sc), vehicle: steriod suspending solution) was 96 % of control and 104 % of control and 108 % of control and the T/C (dose: 50.0 mg/kg/injection, schedule: Q01DX005 (sc), vehicle: steriod suspending solution) was 96 % of control and 99 % of control and 100 % of control. For the same compound, the T/C (dose: 100.0 mg/kg/injection, schedule: Q01DX005 (sc), vehicle: steriod suspending solution) was 100 % of control and 103 % of control and 104 % of control and the T/C (dose: 200.0 mg/kg/injection, schedule: Q01DX005 (sc), vehicle: steriod suspending solution) was 111 % of control and 112 % of control.

In the case of `N=[N+]=CC(=O)OCC(N)C(=O)O` (configuration not stated), the T/C (dose: 2.0 mg/kg/injection, schedule: Q14DX016 (ip), vehicle: saline) is reported as 150 % of control.

`CN(Cc1cnc2nc(N)nc(N)c2n1)c1ccc(C(=O)N[C@@H](CCC(=O)O)C(=O)O)cc1` was tested, and the T/C (dose: 0.75 mg/kg/injection, schedule: Q01DX005 (ip), vehicle: saline) was 188 % of control and 195 % of control, the T/C (dose: 1.5 mg/kg/injection, schedule: Q01DX005 (ip), vehicle: saline) was 161 % of control and 172 % of control and the T/C (dose: 3.0 mg/kg/injection, schedule: Q01DX005 (ip), vehicle: saline) was 53 % of control.

For `CN1C(=O)C=CC1=O`, the T/C (dose: 0.5 mg/kg/injection, schedule: Q01DX009 (ip), vehicle: saline) was 97 % of control and 102 % of control, the T/C (dose: 1.0 mg/kg/injection, schedule: Q01DX009 (ip), vehicle: saline) was 102 % of control and 103 % of control and the T/C (dose: 2.0 mg/kg/injection, schedule: Q01DX009 (ip), vehicle: saline) was 94 % of control and 100 % of control. For the same compound, the T/C (dose: 4.0 mg/kg/injection, schedule: Q01DX009 (ip), vehicle: saline) was 94 % of control.

In the case of `CN(C)C(=O)/N=N/C(=O)N(C)C`, the T/C (dose: 12.5 mg/kg/injection, schedule: Q01DX005 (ip), vehicle: saline) is reported as 95 % of control and 96 % of control and 98 % of control, the T/C (dose: 25.0 mg/kg/injection, schedule: Q01DX005 (ip), vehicle: saline) is reported as 90 % of control and 92 % of control and 96 % of control and the T/C (dose: 50.0 mg/kg/injection, schedule: Q01DX005 (ip), vehicle: saline) is reported as 90 % of control and 91 % of control and 104 % of control. The T/C (dose: 100.0 mg/kg/injection, schedule: Q01DX005 (ip), vehicle: saline) was 88 % of control and 90 % of control (2×).

With `CC[C@]1(O)C[C@H]2CN(CCc3c([nH]c4ccccc34)[C@@](C(=O)OC)(c3cc4c(cc3OC)N(C=O)[C@H]3[C@@](O)(C(=O)OC)[C@H](OC(C)=O)[C@]5(CC)C=CCN6CC[C@]43[C@@H]65)C2)C1` the T/C (dose: 0.03 mg/kg/injection, schedule: Q01DX005 (ip), vehicle: saline) was 96 % of control and 104 % of control and 109 % of control, the T/C (dose: 0.06 mg/kg/injection, schedule: Q01DX005 (ip), vehicle: saline) was 100 % of control and 103 % of control and 105 % of control and the T/C (dose: 0.12 mg/kg/injection, schedule: Q01DX005 (ip), vehicle: saline) was 115 % of control and 118 % of control. For the same compound, the T/C (dose: 0.13 mg/kg/injection, schedule: Q01DX005 (ip), vehicle: saline) was 116 % of control.

With `NC(CC(=O)NO)C(=O)O` (configuration not stated) the T/C (dose: 100.0 mg/kg/injection, schedule: Q01DX005 (ip), vehicle: water) was 100 % of control, the T/C (dose: 200.0 mg/kg/injection, schedule: Q01DX005 (ip), vehicle: water) was 108 % of control and the T/C (dose: 400.0 mg/kg/injection, schedule: Q01DX005 (ip), vehicle: water) was 108 % of control.

For `O=C1NC(O)CCN1C1OC(CO)C(O)C1O` (configuration not stated), the T/C (dose: 10.0 mg/kg/injection, schedule: Q01DX015 (ip), vehicle: saline) was 102 % of control and 109 % of control, the T/C (dose: 10.0 mg/kg/injection, schedule: Q04DX008 (ip), vehicle: saline) was 100 % of control and 101 % of control and the T/C (dose: 10.0 mg/kg/injection, schedule: Q## X015 (ip), vehicle: saline) was 102 % of control and 109 % of control. The T/C (dose: 30.0 mg/kg/injection, schedule: Q01DX015 (ip), vehicle: saline) was 102 % of control and 112 % of control, the T/C (dose: 30.0 mg/kg/injection, schedule: Q04DX008 (ip), vehicle: saline) was 101 % of control (2×) and 103 % of control and the T/C (dose: 30.0 mg/kg/injection, schedule: Q## X015 (ip), vehicle: saline) was 102 % of control and 112 % of control. For the same compound, the T/C (dose: 100.0 mg/kg/injection, schedule: Q01DX015 (ip), vehicle: saline) was 102 % of control and 104 % of control, the T/C (dose: 100.0 mg/kg/injection, schedule: Q04DX008 (ip), vehicle: saline) was 101 % of control (2×) and 103 % of control and the T/C (dose: 100.0 mg/kg/injection, schedule: Q## X015 (ip), vehicle: saline) was 102 % of control and 104 % of control. For the same compound, the T/C (dose: 300.0 mg/kg/injection, schedule: Q01DX015 (ip), vehicle: saline) was 99 % of control and 101 % of control, the T/C (dose: 300.0 mg/kg/injection, schedule: Q04DX008 (ip), vehicle: saline) was 99 % of control and 102 % of control and the T/C (dose: 300.0 mg/kg/injection, schedule: Q## X015 (ip), vehicle: saline) was 99 % of control and 101 % of control. For the same compound, the T/C (dose: 1000.0 mg/kg/injection, schedule: Q01DX015 (ip), vehicle: saline) was 101 % of control, the T/C (dose: 1000.0 mg/kg/injection, schedule: Q04DX008 (ip), vehicle: saline) was 99 % of control and 105 % of control and the T/C (dose: 1000.0 mg/kg/injection, schedule: Q## X015 (ip), vehicle: saline) was 101 % of control.
